The subject of assay [1] is matrix of cartilages of the tibial plateau of STR/ORT mice. The assay can be described thus: Quantitative interference microscopy of dry mass per unit area in the tibial plateau cartilage matrix of treated STR/ORT mice. The format is in vivo. The conditions noted are these: for effect on the dry mass per unit area (and therefore water content) of medial cartilage: feeding STR/ORT mice. The text has this:
The extra-cellular factor was studied by quantitative interference microscopy, as described by Ross, “Phase Contrast and Interference Microscopy for Cell Biologists” Arnold: London, p.36 (1967). This form of microscopy allows the investigator to measure the dry mass, per unit area (Cs), in selected regions of a section or of a cell. This measurement then allows the assessment of water content (Cw): […]

Assay [2] concerns monoamine oxidase (MAO). The experiment in a line: Localisation of monoamine oxidase (MAO) activity in chondrocytes of potentially osteoarthritic cartilage of mice. The format is in vivo. The conditions noted are these: feeding STR/ORT mice. The text has this: In normal articular cartilage (human as well as murine), monoamine oxidase in chondrocytes can be found located precisely in mitochondria. During the development of the natural disease in mice, these granules become larger and apparently burst, the monoamine oxidase (MAO) activity becomes distributed through the cytoplasm of the chondrocytes and even into the surrounding matrix. This was described by Chambers et al, Int. J. Exp. Path. 73:115-123 (1992), who related the MAO activity in the medial as against that in the (normal) lateral cartilage in untreated mice and in those treated with diclofenac.
There was no sign of activity in the general cytoplasm or in the matrix.
Results are shown in Table 1, i.e. the dry mass per μm in the matrix of cartilages of the tibial plateau of STR/ORT mice after various treatments. Three mice were treated with diclofenac (Df) alone, four with tribenoside (Tb) alone, and four with both (Df+Tb).

Assay [3] has as its system STR/ORT mice. The experiment in a line: Development of osteoarthritis / cartilage damage in STR/ORT mice. The conditions noted are these: fraction of mice. It counts as in vivo. The text has this:
The present invention is based on the postulate that two influences are involved in the development of OA: a cellular and an extracellular factor.

Assay [4] deals with STR/ORT mice. The conditions noted are these: mice given the drug; background; cited from earlier work.
Assay [5] concerns monoamine oxidase (MAO). The conditions noted are these: mice given the drug; background, Chambers et al 1992; cited from earlier work.
Where [6] appears, read: STR/ORT mice, matrix of tibial plateau cartilage, one line per mouse, * duplicate sections.

Several values for one entry are separate records, joined by “and”; a condition that tells them apart may be missing. Identical values can stand only once.

Regarding `CCOC1O[C@H]([C@@H](COCc2ccccc2)OCc2ccccc2)[C@H](OCc2ccccc2)[C@H]1O` (stereo partly drawn) [Tb, tribenoside], in assay [1] (setting [6]), the “Mass pg/unit area in the lateral cartilage” value came out at 2.84 pg/unit area; the “Mass pg/unit area in the medial cartilage” value was 2.54 pg/unit area and 2.76 pg/unit area and 2.58 pg/unit area and 2.77 pg/unit area and 2.29 pg/unit area and 2.44 pg/unit area and 3.14 pg/unit area. In addition, in assay [1], the “effect on the dry mass per unit area (and therefore water content) of medial cartilage” value was “markedly increased”. In the assay with monoamine oxidase (MAO) [2], the “localisation of MAO activity / MAO activity in the medial cartilage” value is on record as “did not improve”.

As for `O=C(O)Cc1ccccc1Nc1c(Cl)cccc1Cl` [Df, diclofenac sodium], in assay [1] (setting [6]), the “Mass pg/unit area in the medial cartilage” value was 0.51 pg/unit area and 0.50 pg/unit area and 0.52 pg/unit area. For the same compound, the “effect on the dry mass per unit area (and therefore water content) of medial cartilage” value in assay [1] is listed as “no effect”. For the same compound, the “mice having severe OA” value in the assay on STR/ORT mice [3] was “at least 9/10”. The “development of OA” value with STR/ORT mice [4] is “did not stop the development of OA”. Further, the “localisation of the MAO in the potentially osteoarthritic cartilage” value in the assay with monoamine oxidase (MAO) [5] is listed as “marked improvement”.
